Laboratory results reported in patent publication US10689376B2, “Substituted-3H-imidazo [4,5-c] pyridine and 1H-pyrrolo[2,3-c]pyridine series of novel ectonucleotide pyrophosphatase/phosphodiesterase-1 (ENPP1) and stimulator for interferon genes (STING) modulators as cancer immunotherapeutics” (Stingray Therapeutics, Inc., priority 2017, dated 2020).

What was measured:
Saos-2 Cells = assay: ENPP1 Mineralization Assay; format: cell-based; set-up: key to ENPP1 Mineral assay (50% inhibition at 50 μM): +: active at 50 μM concentration; NA: Not Active; settings: for ENPP1 Mineral assay (50% inhibition at 50 μM): Alizarin Red; for inhibiting ENPP1 ability to produce mineralized nodules (FIG. 4): result in words
Procedure: 4. ENPP1 Mineralization Assay
Saos-2 Cells (ATCC CAT # HTB-85)
24-well Tissue Culture Plate
Ascorbic Acid, 5 mg/mL (100×)
β-Glycerophosphate, 1M (100×)
Phosphate Buffered Saline
Alizarin Red, 40 mM pH 4.2
Dye Extraction Reagent, 10% Methanol+10% Acetic Acid
Saos-2 cells were plated at a density of 1.5×10^6 cells/well and allowed to grow to 100% confluency over the following 1-2 days. Once completely confluent, the media was replaced with fresh media supplemented with 1× ascorbic acid, 1× β-glycerophosphate, and varying concentrations of ENPP1 inhibitor (if applicable). The addition of the mineralization components was considered Day 1, On Day 3, the media was gently aspirated with no wash followed by the addition of fresh media, mineralization components, and ENPP1 inhibitor (if applicable). On day 5, the media was gently aspirated and the cells were washed twice with PBS. The cells were then fixed with ice cold 70% ethanol for 1 hour at 4° C. Cells were washed once with PBS and stained with Alizarin Red for 30 minutes at room temperature with gentle rotation. Stained cells were washed three times with water for 10 minutes at room temperature with gentle rotation. After imaging cells, dye extraction reagent was added to each well and incubated for 30 minutes at room temperature. Alizarin red was quantified by measuring absorbance at a wavelength of 405 nm using the Envision.

[1] = molecular target: T1, Recombinant Human ENPP-1 Protein (Homo sapiens (Human), UniProt P22413); assay: ENPP1 Inhibition Assay; format: biochemical; settings: for IC50: substrate thymidine 5′-monophosphate p-nitrophenol ester, absorbance at 405 nm; for inhibiting the activity of ENPP1 (FIG. 1): result in words
Procedure: 1. ENPP1 Inhibition Assay
Materials: • Assay Buffer: 1 mM CaCl2, 0.2 mM ZnCl2, 50 mM Tris, pH 9.0 • Substrate: 8 mM Thymidine 5′-monophosphate p-nitrophenol ester sodium salt (Sigma Cat # T4510) • Enzyme: 5 ng/μL Recombinant Human ENPP-1 Protein (R&D Cat #6136-EN-010) DMSO • 96-well clear assay plates
(§1) An eight point serial dilution of drugs was prepared in 10× in assay buffer with the final assay concentrations starting at 10 μM, 3 μM, 1 μM, 0.3 μM . . . 0 μM. A dilution of DMSO was included as a control. The assay plate was set up as follows with each well in duplicate: 81 μL assay buffer+10 μL ENPP1 inhibitor or DMSO+5 μL Substrate+4 μL Enzyme. Both the enzyme and substrate were added to opposite sides of the well to ensure that there was no interaction until all wells had both components. The plate was then centrifuged gently for 10 seconds, followed by an incubation at 37° C. for 45 minutes. The reaction was quantified by measuring absorbance at 405 nm using the Envision.
(§2) IC50 values are determined using GraphPad Prism 5 software. The data were entered as an X-Y plot into the software as percent inhibition for each concentration of the drug. The concentration values of the drug were log transformed and the nonlinear regression was carried out using the “sigmoidal dose-response (variable slope)” option within the GraphPad software to model the data and calculate IC50 values. The IC50 values reported are the concentration of drug at which 50% inhibition was reached.

[2] = molecular target: Recombinant Human ENPP-2/Autotaxin Protein (Homo sapiens (Human), UniProt Q13822); assay: ENPP2 Inhibition Assay; format: biochemical; settings: result in words
Procedure: 2. ENPP2 Inhibition Assay
Assay Buffer: 10 mM CaCl2, 5 mM MgCl2, 50 mM Tris, 0.02% Brij-35, pH 8.5
Substrate: 2 mM Bis(p-Nitrophenyl) Phosphate Sodium Salt (Sigma Cat # N3002)
Enzyme: 0.2 ng/μL Recombinant Human ENPP-2/Autotaxin Protein (R&D Cat #5255-EN)
96-well clear assay plates
as §1, with “duplicate: 15” for “duplicate: 81”, “buffer+10 μL,” for “buffer+10 μL”, “or DMSO+50” for “or DMSO+5”, “μL Substrate+25” for “μL Substrate+4”
as §2

[3] = molecular target: T1, Recombinant Human ENPP-1 Protein; assay: ENPP1 Thermal Shift Assay; format: binding
Procedure: 3. ENPP1 Thermal Shift Assay Materials: Recombinant Human ENPP-1 Protein (R&D Cat #6136-EN-010) Assay Buffer (1 mM CaCl2, 0.2 mM ZnCl2, 50 mM Tris, pH 9.0) 5000× SYPRO Orange (ThermoFisher cat # S6651) 384-well PCR Plates Methods: Each drug was prepared as a 10× solution in the assay buffer and SYPRO Orange was diluted to 10× concentration in water. Wells were set up in duplicate in a 384-well PCR plate as follows: 14 μL assay buffer, 2 μL ENPP1 Inhibitor or DMSO, 2 μL (0.5 μg) ENPP1 protein. Each well was mixed and incubated on ice for 5 minutes. Post incubation, 2 μL of SYPRO Orange was mixed into each well and followed by a gentle centrifugation. The protein melt reaction was run using ViiA7 software with temperatures beginning at 25° C. and increasing by 0.05° C./s to the maximum temperature of 99° C.

T1 sequence (P22413 whole entry): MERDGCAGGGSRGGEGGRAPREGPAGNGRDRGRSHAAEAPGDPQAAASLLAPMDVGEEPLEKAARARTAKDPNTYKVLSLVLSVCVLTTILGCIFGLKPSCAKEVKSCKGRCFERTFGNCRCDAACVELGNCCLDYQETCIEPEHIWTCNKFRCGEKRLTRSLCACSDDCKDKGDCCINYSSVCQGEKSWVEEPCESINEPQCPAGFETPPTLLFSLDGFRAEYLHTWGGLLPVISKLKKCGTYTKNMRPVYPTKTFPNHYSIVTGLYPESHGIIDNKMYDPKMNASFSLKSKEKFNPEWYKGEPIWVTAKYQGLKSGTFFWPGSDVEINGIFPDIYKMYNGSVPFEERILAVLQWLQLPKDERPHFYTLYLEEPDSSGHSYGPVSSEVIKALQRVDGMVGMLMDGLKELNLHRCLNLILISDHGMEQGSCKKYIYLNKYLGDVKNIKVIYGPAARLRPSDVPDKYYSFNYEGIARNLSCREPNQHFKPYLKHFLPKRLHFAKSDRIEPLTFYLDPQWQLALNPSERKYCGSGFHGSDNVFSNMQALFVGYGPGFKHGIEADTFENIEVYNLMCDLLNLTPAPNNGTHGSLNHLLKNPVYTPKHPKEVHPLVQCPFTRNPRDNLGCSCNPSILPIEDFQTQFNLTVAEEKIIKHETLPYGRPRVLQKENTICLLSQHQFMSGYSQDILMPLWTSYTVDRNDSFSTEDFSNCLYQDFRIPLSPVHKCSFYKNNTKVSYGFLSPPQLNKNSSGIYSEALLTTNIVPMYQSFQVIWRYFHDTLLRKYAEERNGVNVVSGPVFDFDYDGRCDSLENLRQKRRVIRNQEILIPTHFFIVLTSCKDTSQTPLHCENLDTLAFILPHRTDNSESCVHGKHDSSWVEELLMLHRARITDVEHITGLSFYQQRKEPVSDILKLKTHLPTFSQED

IC50 [1]	SMILES	ENPP1 Mineral assay (50% inhibition at 50 μM) (Saos-2 Cells)	further results
1160 nM	COc1cc(NC(=O)CSc2nc3cc(Cl)ncc3[nH]2)ccc1O [Compound 22, 2-((6-chloro-3H-imidazo[4,5-c]pyridin-2-yl)thio)-N-(4-hydroxy-3-methoxyphenyl)acetamide]	+	
79 nM	COc1ccc(NC(=O)CSc2nc3c(C)c(C#N)ncc3[nH]2)cc1O [Compound 78, 2-((6-Cyano-7-methyl-3H-imidazo[4,5-c]pyridin-2-yl)thio)-N-(3-hydroxy-4-methoxyphenyl)acetamide]	+	inhibiting the activity of ENPP2 (FIGS. 2A and 2B) [2]: ineffective in inhibiting the activity of ENPP2; selectivity ENPP1 versus ENPP2 [2]: selective at inhibiting ENPP1 but not ENPP2; inhibiting the activity of ENPP1 (FIG. 1) [1]: effective in inhibiting the activity of ENPP1
86 nM	COc1ccc(NC(=O)CSc2nc3cc(Cl)ncc3[nH]2)cc1O [Compound 21, 2-((6-chloro-3H-imidazo[4,5-c]pyridin-2-yl)thio)-N-(3-hydroxy-4-methoxyphenyl)acetamide]	+	inhibiting the activity of ENPP2 (FIGS. 2A and 2B) [2]: ineffective in inhibiting the activity of ENPP2; selectivity ENPP1 versus ENPP2 [2]: selective at inhibiting ENPP1 but not ENPP2; inhibiting ENPP1 ability to produce mineralized nodules (FIG. 4) (Saos-2 Cells): effective in inhibiting ENPP1 ability to produce mineralized nodules; Tm (midpoint of the protein unfolding transition) of ENPP1 in the presence of compound ([3]; Tm of ENPP1 alone 64.2° C.): 67.84 °C; stability of recombinant ENPP1 protein (FIG. 3) ([3]; result in words): effective in increasing the stability of recombinant ENPP1 protein; inhibiting the activity of ENPP1 (FIG. 1) [1]: effective in inhibiting the activity of ENPP1
114 nM	COc1ccc(NC(=O)CSc2nc3cc(C#N)ncc3[nH]2)cc1OC [Compound 68, 2-((6-Cyano-3H-imidazo[4,5-c]pyridin-2-yl)thio)-N-(3,4-dimethoxyphenyl)acetamide]	+	inhibiting ENPP1 ability to produce mineralized nodules (FIG. 4) (Saos-2 Cells): effective in inhibiting ENPP1 ability to produce mineralized nodules; inhibiting the activity of ENPP1 (FIG. 1) [1]: effective in inhibiting the activity of ENPP1
181 nM	COc1ccc(NC(=O)CSc2nc3cnc(C(F)(F)F)cc3[nH]2)cc1O [Compound 31, N-(3-hydroxy-4-methoxyphenyl)-2-((6-(trifluoromethyl)-1H-imidazo[4,5-c]pyridin-2-yl)thio)acetamide]	+	
170 nM	O=C(CSc1nc2cnc(Cl)cc2[nH]1)Nc1ccc(F)c(O)c1 [Compound 37, 2-((6-chloro-1H-imidazo[4,5-c]pyridin-2-yl)thio)-N-(4-fluoro-3-hydroxyphenyl)acetamide]	+	
651 nM	O=C(CSc1nc2cnc(C(F)(F)F)cc2[nH]1)Nc1ccc(F)c(O)c1 [Compound 45, N-(4-fluoro-3-hydroxyphenyl)-2-((6-(trifluoromethyl)-1H-imidazo[4,5-c]pyridin-2-yl)thio)acetamide]	+	
487 nM	COc1ccc(NC(=O)CSc2nc3cnc(C(F)(F)F)cc3[nH]2)cc1F [Compound 38, N-(3-fluoro-4-methoxyphenyl)-2-((6-(trifluoromethyl)-1H-imidazo[4,5-c]pyridin-2-yl)thio)acetamide]	+	
580 nM	COc1ccc(NC(=O)CSc2nc3cc(Cl)ncc3[nH]2)cc1OC [Compound 3, 2-((6-Chloro-3H-imidazo[4,5-c]pyridin-2-yl)thio)-N-(3,4-dimethoxyphenyl)acetamide]		
2060 nM	COc1nc(NC(=O)CSc2nc3c(C)c(C#N)ncc3[nH]2)ccc1O [Compound 96, 2-((6-cyano-7-methyl-3H-imidazo[4,5-c]pyridin-2-yl)thio)-N-(5-hydroxy-6-methoxypyridin-2-yl)acetamide]		
10900 nM	O=C(CSc1nc2cc(Cl)ncc2[nH]1)Nc1nc2ccccc2s1 [Compound 62, N-(Benzo[d]thiazol-2-yl)-2-((6-chloro-3H-imidazo[4,5-c]pyridin-2-yl)thio)acetamide]		
265 nM	COc1ccc(NC(=O)CSc2nc3c(C)c(C#N)ncc3[nH]2)cc1OC [Compound 77, 2-((6-Cyano-7-methyl-3H-imidazo[4,5-c]pyridin-2-yl)thio)-N-(3,4-dimethoxyphenyl)acetamide]		
8370 nM	COc1cc(NC(=O)CSc2nc3c(C)cncc3[nH]2)ccc1O [Compound 18, N-(4-hydroxy-3-methoxyphenyl)-2-((7-methyl-3H-imidazo[4,5-c]pyridin-2-yl)thio)acetamide]		
